Experiments:
Assay in all cases: relative viability (nuclei count vs DMSO), 5 days (fraction); higher = more cells survive
[1] = compound: CCn1c(-c2nonc2N)nc2cnc(Oc3cccc(NC(=O)c4ccc(OCCN5CCOCC5)cc4)c3)cc21 + C[C@]1(O)C[C@@H](c2nc(-c3ccc4ccc(-c5ccccc5)nc4c3)c3c(N)nccn32)C1 [Linsitinib] (partner 1 µM)
Method in brief: (§1)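 Five library-drug doses in √10 steps were combined with a fixed anchor-drug dose, or a single drug was given alone, by pin tool to lung cancer cell lines in 1536-well plates the day after seeding. Nuclei were stained and counted after 5 days. Relative viability is the nuclei count in treated wells over that in vehicle wells, taken as the median of duplicate plates.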

[2] = compound: N=C1NC(=O)/C(=C/c2ccc(O)cc2)S1 [Mirin] + CCNC(=O)c1noc(-c2cc(C(C)C)c(O)cc2O)c1-c1ccc(CN2CCOCC2)cc1 [Luminespib] (partner 0.01 µM)
Method in brief: as §1

[3] = compound: N=C1NC(=O)/C(=C/c2ccc(O)cc2)S1 [Mirin] + COc1cccc2cc(-c3nc([C@H]4CC[C@H](C(=O)O)CC4)n4ncnc(N)c34)[nH]c12 [OSI-027] (partner 0.5 µM)
Method in brief: as §1

[4] = compound: N=C1NC(=O)/C(=C/c2ccc(O)cc2)S1 [Mirin] + Nc1nc2[nH]cc(CCc3ccc(C(=O)N[C@@H](CCC(=O)O)C(=O)O)cc3)c2c(=O)[nH]1 [Pemetrexed] (partner 0.2 µM)
Method in brief: as §1

| Cell Line | relative viability ([1]; first compound 0.04 µM) | relative viability ([1]; first compound 0.1265 µM) | relative viability ([1]; first compound 0.4 µM) | relative viability ([1]; first compound 1.265 µM) | relative viability ([1]; first compound 4 µM) | relative viability ([2]; first compound 0.25 µM) | relative viability ([2]; first compound 0.7906 µM) | relative viability ([2]; first compound 2.5 µM) | relative viability ([2]; first compound 7.906 µM) | relative viability ([2]; first compound 25 µM) | relative viability ([3]; first compound 0.25 µM) | relative viability ([3]; first compound 0.7906 µM) | relative viability ([3]; first compound 2.5 µM) | relative viability ([3]; first compound 7.906 µM) | relative viability ([3]; first compound 25 µM) | relative viability ([4]; first compound 0.25 µM) | relative viability ([4]; first compound 0.7906 µM) | relative viability ([4]; first compound 2.5 µM) | relative viability ([4]; first compound 7.906 µM) | relative viability ([4]; first compound 25 µM) |
| --- | --- | --- | --- | --- | --- | --- | --- | --- | --- | --- | --- | --- | --- | --- | --- | --- | --- | --- | --- | --- |
| NCI-H322M | 1.03 | 0.845 | 0.912 | 0.939 | 0.808 | 0.924 | 0.745 | 0.913 | 1.05 | 0.583 | 0.543 | 0.4 | 0.643 | 0.475 | 0.444 | 0.633 | 0.528 | 0.615 | 0.713 | 0.568 |
| NCI-H358 | 1.12 | 0.615 | 0.574 | 0.571 | 0.434 | 0.562 | 0.408 | 0.502 | 0.36 | 0.413 | 0.783 | 0.843 | 0.793 | 0.542 | 0.368 | 0.162 | 0.176 | 0.182 | 0.161 | 0.143 |
| NCI-H441 | 0.545 | 0.766 | 0.635 | 0.566 | 0.465 | 0.377 | 0.321 | 0.343 | 0.269 | 0.282 | 0.673 | 0.6 | 0.598 | 0.473 | 0.602 | 0.227 | 0.262 | 0.251 | 0.261 | 0.251 |
| NCI-H460 | 1.35 | 0.794 | 0.513 | 0.144 | 0.135 | 0.0342 | 0.0263 | 0.0361 | 0.0242 | 0.0254 | 0.612 | 0.672 | 0.748 | 0.55 | 0.389 | 0.0601 | 0.0695 | 0.0719 | 0.0635 | 0.0557 |
| NCI-H520 | 1.07 | 1.15 | 1.12 | 0.565 | 0.415 | 0.234 | 0.241 | 0.225 | 0.235 | 0.211 | 0.241 | 0.289 | 0.257 | 0.222 | 0.177 | 0.654 | 0.591 | 0.7 | 0.545 | 0.449 |
| NCI-H596 | 1.05 | 1.13 | 1.16 | 0.931 | 1.14 | 0.931 | 0.984 | 1.06 | 0.955 | 0.905 | 0.826 | 0.747 | 0.842 | 0.587 | 0.746 | 0.493 | 0.542 | 0.437 | 0.521 | 0.539 |
| NCI-H647 | 0.993 | 1 | 1.01 | 0.729 | 0.558 | 0.115 | 0.11 | 0.17 | 0.241 | 0.09 | 0.759 | 0.688 | 0.572 | 0.645 | 0.503 | 0.198 | 0.161 | 0.146 | 0.172 | 0.111 |
| NCI-H650 | 1.01 | 0.667 | 0.521 | 0.304 | 0.426 | 0.741 | 0.7 | 0.857 |  | 0.811 | 0.478 | 0.628 | 0.523 |  | 0.58 | 1.05 | 0.865 | 0.928 | 0.711 | 0.94 |

From the supplement of paper PMC10307832
